Measurements taken from patent US8791132B2, “Compounds and methods for treatment of hypertension” (Medivation Technologies, Inc., priority 2011, dated 2014).

Tests used:
[1] = molecular target: T1, human recombinant adrenergic α2B receptor (Homo sapiens, UniProt P18089); experiment: Radioligand binding, adrenergic α2B ([3H]Rauwolscine); conditions: for Percentage inhibition of ligand binding, Adrenergic α2B (0.03 μM): compound at 0.03 μM; for Ki: read-out: Ki α2B; for inhibition at 0.03 µM: read-out: Percentage inhibition of ligand binding, Adrenergic α2B (0.03 μM), compound at 0.03 μM
T1 construct: expressed in transfected cells; host or cells: CHO-K1
T1 sequence (P18089 1-450): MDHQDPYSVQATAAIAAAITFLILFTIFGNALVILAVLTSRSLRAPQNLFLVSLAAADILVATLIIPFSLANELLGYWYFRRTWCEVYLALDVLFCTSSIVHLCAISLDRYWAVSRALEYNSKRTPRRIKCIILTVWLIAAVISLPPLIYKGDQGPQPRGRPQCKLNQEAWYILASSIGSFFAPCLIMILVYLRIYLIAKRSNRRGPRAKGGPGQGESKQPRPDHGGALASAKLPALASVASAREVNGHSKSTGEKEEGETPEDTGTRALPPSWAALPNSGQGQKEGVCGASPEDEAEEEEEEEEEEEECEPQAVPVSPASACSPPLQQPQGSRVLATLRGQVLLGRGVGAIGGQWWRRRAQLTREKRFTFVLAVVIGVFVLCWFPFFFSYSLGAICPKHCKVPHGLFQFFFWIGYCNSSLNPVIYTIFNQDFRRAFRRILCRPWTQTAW
In short: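 Receptor expressed in CHO-K1 cells, assayed in 50 mM Tris-HCl pH 7.4 with 12.5 mM MgCl2, 1 mM EDTA and 0.2% BSA. Compounds were incubated with 2.5 nM [3H]Rauwolscine for 60 min at 25° C; 10 μM Prazosin defined non-specific binding. Filter counting gave percent inhibition of specific binding.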

[2] = molecular target: T2, human recombinant adrenergic α2A receptor (Homo sapiens, UniProt P08913); experiment: Radioligand binding, adrenergic α2A ([3H]MK-912); conditions: for Percentage inhibition of ligand binding, Adrenergic α2A (0.1 μM): compound at 0.1 μM; for Percentage inhibition of ligand binding, Adrenergic α2A (0.1 μM) / inhibition at 0.03 µM / inhibition at 0.1 µM: [3H]MK-912, repeat datapoints each shown; for inhibition at 0.03 µM: read-out: Percentage inhibition of ligand binding, Adrenergic α2A (0.03 μM), compound at 0.03 μM; for inhibition at 0.1 µM: read-out: Percentage inhibition of ligand binding, Adrenergic α2A (0.1 μM), compound at 0.1 μM
T2 construct: expressed in transfected cells; host or cells: insect Sf9 cells
T2 sequence (P08913 1-465): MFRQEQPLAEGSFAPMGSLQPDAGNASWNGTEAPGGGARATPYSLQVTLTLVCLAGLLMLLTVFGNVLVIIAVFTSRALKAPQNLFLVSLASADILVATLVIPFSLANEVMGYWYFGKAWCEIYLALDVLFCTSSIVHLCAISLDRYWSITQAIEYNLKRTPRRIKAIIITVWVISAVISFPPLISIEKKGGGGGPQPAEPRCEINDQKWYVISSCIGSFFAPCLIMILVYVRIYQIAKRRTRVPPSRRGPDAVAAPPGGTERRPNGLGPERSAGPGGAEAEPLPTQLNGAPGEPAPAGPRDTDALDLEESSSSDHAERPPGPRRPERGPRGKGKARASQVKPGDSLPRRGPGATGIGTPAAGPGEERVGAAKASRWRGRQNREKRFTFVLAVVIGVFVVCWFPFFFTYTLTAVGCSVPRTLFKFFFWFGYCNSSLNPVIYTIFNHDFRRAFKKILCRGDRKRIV
In short: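 Receptor expressed in Sf9 cells, in 50 mM Tris-HCl pH 7.4, 12.5 mM MgCl2, 2 mM EDTA; compounds incubated with 1 nM [3H]MK-912 for 60 min at 25 °C.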

[3] = molecular target: T3, rat adrenergic α1B receptor (Rattus norvegicus, UniProt P15823); experiment: Radioligand binding, adrenergic α1B ([3H]Prazosin); conditions: [3H]Prazosin, repeat datapoints each shown; for Percentage inhibition of ligand binding, Adrenergic α1B (0.1 μM): compound at 0.1 μM; for inhibition at 0.03 µM: read-out: Percentage inhibition of ligand binding, Adrenergic α1B (0.03 μM), compound at 0.03 μM; for inhibition at 0.1 µM: read-out: Percentage inhibition of ligand binding, Adrenergic α1B (0.1 μM), compound at 0.1 μM
T3 construct: rat adrenergic α1B receptor obtained from Wistar Rat liver; from tissue; host or cells: Wistar rat liver
T3 sequence (P15823 1-515): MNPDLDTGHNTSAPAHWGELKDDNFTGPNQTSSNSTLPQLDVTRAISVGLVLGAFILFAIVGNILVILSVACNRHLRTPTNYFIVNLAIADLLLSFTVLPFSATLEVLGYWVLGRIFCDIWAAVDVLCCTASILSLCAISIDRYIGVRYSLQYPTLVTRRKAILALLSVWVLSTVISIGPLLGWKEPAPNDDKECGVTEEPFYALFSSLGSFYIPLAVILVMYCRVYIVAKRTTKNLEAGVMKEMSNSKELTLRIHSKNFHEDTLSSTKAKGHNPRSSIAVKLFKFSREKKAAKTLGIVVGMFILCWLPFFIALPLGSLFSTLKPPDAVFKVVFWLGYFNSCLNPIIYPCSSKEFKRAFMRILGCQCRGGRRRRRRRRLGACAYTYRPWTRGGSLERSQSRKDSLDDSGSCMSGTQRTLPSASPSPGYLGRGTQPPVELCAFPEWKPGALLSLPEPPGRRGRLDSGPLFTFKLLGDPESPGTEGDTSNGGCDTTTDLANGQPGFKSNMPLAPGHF
In short: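 Specific binding, taken as total minus that remaining with 10 μM phentolamine, is measured after filtration and counting. Rat liver receptor preparation and 0.25 nM [3H]prazosin are incubated with compound in 50 mM Tris-HCl (pH 7.4, 0.5 mM EDTA) at 25° C for 60 min. Activity is reported as percent inhibition.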

[4] = [3H]Rauwolscine, repeat datapoints each shown

| SMILES | Percentage inhibition of ligand binding, Adrenergic α2B (0.03 μM) [1, 4] [%] | Percentage inhibition of ligand binding, Adrenergic α2A (0.1 μM) [2] [%] | Percentage inhibition of ligand binding, Adrenergic α1B (0.1 μM) [3] [%] | Ki [1] [nM] | inhibition at 0.03 µM [1, 4] [%] | Ki [2] [nM] | inhibition at 0.03 µM [2] [%] | inhibition at 0.1 µM [2] [%] | inhibition at 0.03 µM [3] [%] | inhibition at 0.1 µM [3] [%] | inhibition at 0.1 µM ([1]; read-out: Percentage inhibition of ligand binding, Adrenergic α2B (0.1 μM), compound at 0.1 μM, [3H]Rauwolscine, repeat datapoints each shown) [%] |
| --- | --- | --- | --- | --- | --- | --- | --- | --- | --- | --- | --- |
| Cc1ccc2c(c1Cl)c1c(n2CC(C)(O)c2cccnc2)CCN(C)C1 (single isomer, unassigned) [II-124b, 1-(9-chloro-2,8-dimethyl-3,4-dihydro-1H-pyrido[4,3-b]indol-5(2H)-yl)-2-(pyridin-3-yl)propan-2-ol] | 18 | 7 | 10 | – | – | – | – | – | – | – | – |
| Cc1cc(C)c2c(c1)c1c(n2CC(O)c2ccncc2)CCN2CCCC12 (single isomer, unassigned) [II-125a, 2-(8,10-dimethyl-2,3,5,6-tetrahydro-1H-indolizino[7,8-b]indol-7(11cH)-yl)-1-(pyridin-4-yl)ethanol] | 100 | 62 | 92 | – | – | – | – | – | – | – | – |
| Cc1cc(C)c2c(c1)c1c(n2CC(O)c2ccncc2)CCN2CCCC12 (single isomer, unassigned) [II-125b, 2-(8,10-dimethyl-2,3,5,6-tetrahydro-1H-indolizino[7,8-b]indol-7(11cH)-yl)-1-(pyridin-4-yl)ethanol] | 106 | 98 | 102 | 0.16 | 103 | 1.21 | 89 | 97 | 89 | 97 | – |
| Cc1cc(C)c2c(c1)c1c(n2CC(O)c2ccncc2)CCN2CCCC12 (single isomer, unassigned) [II-125c, 2-(8,10-dimethyl-2,3,5,6-tetrahydro-1H-indolizino[7,8-b]indol-7(11cH)-yl)-1-(pyridin-4-yl)ethanol] | 67 | 9 | 42 | – | – | – | – | – | – | – | – |
| Cc1cc(C)c2c(c1)c1c(n2CC(O)c2ccncc2)CCN2CCCC12 (single isomer, unassigned) [II-125d, 2-(8,10-dimethyl-2,3,5,6-tetrahydro-1H-indolizino[7,8-b]indol-7(11cH)-yl)-1-(pyridin-4-yl)ethanol] | 88 | 71 | 64 | – | – | – | – | – | – | – | – |
| Cc1ccc2c(c1)c1c(n2CC(C)(O)c2cccnc2)CCN2CCCC12 (single isomer, unassigned) [II-127a, 1-(9-methyl-1,2,3,4,5,10c-hexahydro-3a,6-diaza-cyclopenta[c]fluoren-6-yl)-2-pyridin-3-yl-propan-2-ol] | – | 79 | – | – | 105 | – | – | – | – | 83 | – |
| Cc1ccc2c(c1)c1c(n2CC(C)(O)c2cccnc2)CCN2CCCC12 (single isomer, unassigned) [II-127b, 1-(9-methyl-1,2,3,4,5,10c-hexahydro-3a,6-diaza-cyclopenta[c]fluoren-6-yl)-2-pyridin-3-yl-propan-2-ol] | 104 | 54 | 65 | – | – | – | – | – | – | – | – |
| Cc1ccc2c(c1)c1c(n2CC(C)(O)c2ccc(C)nc2)CCN2CCCC12 (single isomer, unassigned) [II-128b, 1-(9-methyl-1,2,3,4,5,10c-hexahydro-3a,6-diaza-cyclopenta[c]fluoren-6-yl)-2-(6-methyl-pyridin-3-yl)-propan-2-ol] | 106 | 77 | 86 | 0.49 | 102 | 13.1 | 50 | 74 | 56 | 84 | – |
| CC(O)(Cn1c2c(c3cc(Cl)ccc31)C1CCCN1CC2)c1cccnc1 (single isomer, unassigned) [II-130a, 1-(10-chloro-2,3,5,6-tetrahydro-1H-indolizino[7,8-b]indol-7(11cH)-yl)-2-(pyridin-3-yl)propan-2-ol] | 103 | 86 | 92 | – | – | – | – | – | – | – | – |
| CC(O)(Cn1c2c(c3cc(Cl)ccc31)C1CCCN1CC2)c1cccnc1 (single isomer, unassigned) [II-130b, 1-(10-chloro-2,3,5,6-tetrahydro-1H-indolizino[7,8-b]indol-7(11cH)-yl)-2-(pyridin-3-yl)propan-2-ol] | 33 | 15 | 3 | – | – | – | – | – | – | – | – |
| Cc1ccc2c(c1)c1c(n2CC(O)c2cc[nH]c(=O)c2)CCN2CCCC12 (single isomer, unassigned) [II-132a, 4-(2-(2,3,5,6-tetrahydro-10-methyl-1H-indolizino[7,8-b]indol-7(11cH)-yl)-1-hydroxyethyl)pyridin-2(1H)-one] | 40 | 8 | 33 | – | – | – | – | – | – | – | – |
| Cc1ccc2c(c1)c1c(n2CC(O)c2cc[nH]c(=O)c2)CCN2CCCC12 (single isomer, unassigned) [II-132b, 4-(2-(2,3,5,6-tetrahydro-10-methyl-1H-indolizino[7,8-b]indol-7(11cH)-yl)-1-hydroxyethyl)pyridin-2(1H)-one] | 70 | 22 | 68 | – | – | – | – | – | – | – | – |
| Cc1ccc2c(c1)c1c(n2CC(C)(O)c2cccnc2)CCN(C)CC1 (single isomer, unassigned) [II-135b, 1-(3,9-dimethyl-2,3,4,5-tetrahydroazepino[4,5-b]indol-6(1H)-yl)-2-(pyridin-3-yl)propan-2-ol] | 105 | – | 70 | 0.53 | 103 | – | – | 40 | 26 | 60 | 105 |
